Experimental data: ChEMBL document CHEMBL1201862, “PubChem BioAssay data set” (2004)
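96-well plates; 48 h exposure; 5 concentrations. Endpoints by linear interpolation between flanking doses. Not reached: highest tested concentration assigned. The concentration for 50% growth inhibition is given as GI50.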 Active and inactive are the calls of the source. No stated cut-off is given here; in the data, active = GI50 up to about 1.1 µM and inactive = higher.

Experiments:
Assay in all cases: growth of human tumour cells (NCI), 48 h
[1] = test system: A498
[2] = test system: COLO 205
[3] = test system: HCC 2998
[4] = test system: NCI-H522
[5] = test system: U-251
[6] = test system: SF-295
[7] = test system: HOP-92
[8] = test system: UO-31
[9] = test system: HT-29
[10] = test system: KM12
[11] = test system: MOLT-4
[12] = test system: RXF 393
[13] = test system: SK-OV-3
[14] = test system: Malme-3M
[15] = test system: HOP-62
[16] = test system: SK-MEL-5
[17] = test system: MDA-MB-231
[18] = test system: MCF7
[19] = test system: DU-145
[20] = test system: PC-3

Measured: GI50

CC1=C/C(=C2/N=C(N(C)C)SS2)C(C)=N1.[O-][Cl+3]([O-])([O-])O
inactive: [1] > 100 µM | [2] 3.07 µM | [3] > 100 µM | [4] 4.33 µM | [5] > 100 µM | [6] > 100 µM | [7] > 100 µM | [8] > 100 µM | [9] > 100 µM | [10] > 100 µM | [11] > 100 µM | [12] > 100 µM | [13] > 100 µM | [14] 21.8 µM | [15] > 100 µM

COc1nc2c(nc(N)n2C2OC(CO)C(O)C(O)C2O)c(=O)[nH]1 (centres undefined)
inactive: [1] > 100 µM | [2] > 100 µM | [3] > 100 µM | [4] > 100 µM | [5] > 100 µM | [6] > 100 µM | [7] > 100 µM | [8] > 100 µM | [9] > 100 µM | [10] > 100 µM | [12] > 100 µM | [13] > 100 µM | [14] > 100 µM | [15] > 100 µM | [16] > 100 µM

CC(=O)NNc1nc(C)c(C(=O)/C=C/c2ccc(NC(C)=O)cc2)s1
inactive: [1] > 100 µM | [2] > 100 µM | [3] > 100 µM | [4] > 100 µM | [5] > 100 µM | [6] > 100 µM | [7] > 100 µM | [8] > 100 µM | [9] > 100 µM | [10] > 100 µM | [11] > 100 µM | [12] > 100 µM | [13] > 100 µM | [14] > 100 µM | [15] > 100 µM | [16] > 100 µM

CCOc1ccccc1NC(=O)CC(C(=O)OC)C(=O)C(=O)OC (centres undefined)
inactive: [1] > 100 µM | [2] > 100 µM | [3] > 100 µM | [4] > 100 µM | [5] > 100 µM | [6] > 100 µM | [7] > 100 µM | [8] > 100 µM | [9] > 100 µM | [10] > 100 µM | [11] > 100 µM | [12] > 100 µM | [13] > 100 µM | [14] > 100 µM | [15] > 100 µM | [16] > 100 µM

N=C(N)NS(=O)(=O)c1ccc(NC(=O)c2cccn3c(=O)c4ccccc4nc23)cc1
inactive: [1] > 100 µM | [2] 18.2 µM | [3] 85.7 µM | [4] 35 µM | [5] > 100 µM | [6] 85.5 µM | [7] > 100 µM | [8] 55.1 µM | [9] 23.2 µM | [10] 15.9 µM | [11] 25.5 µM | [12] 62.8 µM | [13] > 100 µM | [14] > 100 µM | [15] > 100 µM | [16] 27 µM

O=S(=O)(SCc1ccccc1)C(c1ccccc1)c1ccccc1
inactive: [1] 29.6 µM | [2] 19.6 µM | [3] > 100 µM | [4] 26.6 µM | [5] 32.9 µM | [6] 44.1 µM | [7] 5.57 µM | [8] 64.6 µM | [9] 28.6 µM | [10] 34.1 µM | [11] 3.7 µM | [12] 21.9 µM | [13] > 100 µM | [14] 36.1 µM | [15] > 100 µM | [16] 22.5 µM

COC1C=C(Nc2cccc(Cl)c2)C(=O)C1 (centres undefined)
inactive: [1] 15.7 µM | [2] 10.4 µM | [3] 53.8 µM | [4] 24.9 µM | [5] 32.3 µM | [6] 54 µM | [7] 39.5 µM | [8] 41.2 µM | [9] 65.3 µM | [10] 71 µM | [11] 49.3 µM | [12] 23.4 µM | [13] 48.8 µM | [14] > 100 µM | [15] > 100 µM | [16] 83 µM

COc1cc(/C=C2/SC(c3ccccc3)N(Cc3ccccc3)C2=O)cc(OC)c1OC (centres undefined)
inactive: [1] 49.1 µM | [2] 19.8 µM | [3] 80.5 µM | [4] 17.2 µM | [5] 36.7 µM | [6] 30.6 µM | [7] 32.8 µM | [8] 40.5 µM | [9] 25.9 µM | [17] > 100 µM | [10] 27.2 µM | [11] 14.4 µM | [18] 30.3 µM | [19] 42.7 µM | [12] 7.14 µM | [13] 41.1 µM | [14] 38.4 µM | [15] 54.3 µM | [16] 12.1 µM

COC(=O)C(CC(=O)c1ccccc1)c1ccccc1NC(C)=O (centres undefined)
inactive: [1] > 100 µM | [2] > 100 µM | [3] > 100 µM | [4] > 100 µM | [5] > 100 µM | [6] > 100 µM | [7] > 100 µM | [8] 29.9 µM | [9] > 100 µM | [10] > 100 µM | [11] > 100 µM | [13] > 100 µM | [14] > 100 µM | [15] > 100 µM | [16] > 100 µM

COc1ccc(N2C(=O)C3c4[nH]c5ccccc5c4C4CCCCC4C3C2=O)cc1 (centres undefined)
inactive: [1] 24.6 µM | [2] 3.94 µM | [3] 18.3 µM | [4] 18 µM | [5] 15.6 µM | [6] 11.3 µM | [7] 18.2 µM | [8] 26.4 µM | [9] 23.4 µM | [10] 38.5 µM | [11] 16.1 µM | [12] 20.8 µM | [13] 19.7 µM | [14] 5.56 µM | [15] 15 µM | [16] 21.7 µM

CN(C)c1ccc(C2ON=C(c3ccccc3)N2C23CC4CC(CC(C4)C2)C3)cc1 (centres undefined)
inactive: [1] > 10 µM | [2] > 10 µM | [3] > 10 µM | [4] > 10 µM | [5] > 10 µM | [6] > 10 µM | [7] > 10 µM | [9] > 10 µM | [17] > 10 µM | [10] > 10 µM | [11] 5.87 µM | [19] > 10 µM | [20] > 10 µM | [12] > 10 µM | [13] > 10 µM | [14] > 10 µM | [15] > 10 µM | [16] > 10 µM

COc1cc2c(cc1OC)C1[C@@H](c3ccccc3)OCN1CC2 (some centres undefined)
inactive: [1] > 100 µM | [2] 91.2 µM | [3] > 100 µM | [4] > 100 µM | [5] > 100 µM | [6] > 100 µM | [7] 83.4 µM | [8] > 100 µM | [9] > 100 µM | [10] > 100 µM | [11] > 100 µM | [12] > 100 µM | [13] > 46 µM | [14] > 100 µM | [15] > 100 µM | [16] > 96.4 µM

Nc1n2nc(-c3ccccc3)sc2n[n+]1CC(=O)c1ccccc1
inactive: [1] 25.1 µM | [2] 17 µM | [3] 12.5 µM | [4] 15.8 µM | [5] 12.6 µM | [6] 14 µM | [8] 16.6 µM | [9] 9.53 µM | [10] 6.3 µM | [11] 3.66 µM | [18] 5.37 µM | [19] 17.8 µM | [20] 11 µM | [12] 10.8 µM | [13] 16.7 µM | [14] > 10 µM | [15] 14 µM | [16] 7.43 µM

COc1ccc2nc(C(=O)c3ccccc3)c(C)cc2c1
inactive: [1] 2.74 µM | [2] 5.93 µM | [3] 6.01 µM | [4] 1.88 µM | [5] 3.5 µM | [6] 2.81 µM | [7] 7.13 µM | [8] 12.9 µM | [9] 3.59 µM | [10] 6.58 µM | [11] 5.02 µM | [12] 2.7 µM | [13] 3.83 µM | [14] 2.94 µM | [15] 6.47 µM | [16] 3.15 µM

CN(C)c1ccc(/C=C2\N=C(c3ccc(N)cc3)OC2=O)cc1
inactive: [1] > 100 µM | [2] > 100 µM | [3] > 100 µM | [4] > 100 µM | [5] > 100 µM | [6] > 100 µM | [7] > 100 µM | [8] > 100 µM | [9] > 100 µM | [10] > 100 µM | [11] > 100 µM | [13] > 100 µM | [14] > 100 µM | [15] > 100 µM | [16] > 100 µM

O=C(CC/C(CC(=O)c1ccc(Br)cc1)=N\O)Nc1ccc(Cl)c(Cl)c1
inactive: [1] 36.3 µM | [2] 37.8 µM | [3] > 100 µM | [4] 20.5 µM | [5] > 100 µM | [6] > 100 µM | [7] 68.2 µM | [8] > 100 µM | [9] 43.5 µM | [10] 67.8 µM | [11] 52.7 µM | [12] 29.2 µM | [13] > 100 µM | [14] > 100 µM | [15] > 100 µM | [16] 29.8 µM

O=C(O)CC(O)(c1ccccc1C(=O)O)c1cccc2ccccc12 (centres undefined)
inactive: [1] > 100 µM | [2] > 100 µM | [4] > 100 µM | [5] > 100 µM | [6] > 100 µM | [7] > 100 µM | [8] > 100 µM | [9] > 100 µM | [10] > 100 µM | [11] > 100 µM | [12] > 100 µM | [13] > 100 µM | [14] > 100 µM | [15] > 100 µM | [16] > 100 µM
